Source: US4694008A, “Chemical compounds” (Smith Kline & French Laboratories Limited, priority 1984, dated 1987)

Assays:
histamine H2 -receptors [1] = biological target: T1, histamine H2 -receptors (Rattus norvegicus, UniProt P25102); test: inhibition of histamine-stimulated secretion of gastric acid, lumen-perfused stomachs of rats anaesthetised with urethane; assay type: in vivo; details: iv, read-out: ED50 values in the lumen-perfused rat test
T1 construct: histamine-stimulated secretion of gastric acid from the lumen-perfused stomachs of rats anaesthetised with urethane; from tissue; host or cells: stomach of the anaesthetised rat (in vivo, lumen-perfused)
T1 sequence (P25102 whole entry, the tested form may be a part): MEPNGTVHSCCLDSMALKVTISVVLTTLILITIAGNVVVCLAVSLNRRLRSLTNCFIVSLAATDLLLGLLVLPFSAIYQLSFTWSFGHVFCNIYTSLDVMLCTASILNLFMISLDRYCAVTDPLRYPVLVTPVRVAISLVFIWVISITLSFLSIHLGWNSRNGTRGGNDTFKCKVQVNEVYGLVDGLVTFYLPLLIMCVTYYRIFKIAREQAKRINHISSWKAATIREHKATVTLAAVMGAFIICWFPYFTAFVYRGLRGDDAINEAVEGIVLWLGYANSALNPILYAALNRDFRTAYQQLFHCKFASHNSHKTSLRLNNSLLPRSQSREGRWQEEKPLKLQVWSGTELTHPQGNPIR
Source text: These are actions of histamine which, according to Ash and Schild, Brit. J. Pharmac. Chemother. 27 247 (1966), are not mediated by histamine H1 -receptors.
(§1) The measurement of inhibition of histamine-stimulated secretion of gastric acid from the lumen-perfused stomachs of rats anaesthetised with urethane, and the measurement of inhibition of histamine-induced tachycardia in the isolated guinea pig right atrium, are detailed in U.S. Pat. No. 4,385,058.

histamine H2 -receptors [2] = test: inhibition of histamine-induced tachycardia in the isolated guinea pig right atrium
Source text: as §1

ED50 (histamine H2 -receptors [1])	SMILES	pA2 values in the guinea pig atrium test (histamine H2 -receptors [2])
< 0.1 µmol/kg	O=c1[nH]c(CCCOc2cccc(CN3CCCCC3)c2)ncc1OCc1ccccc1 [Example 1, 2-[3-[3-(Piperidinomethyl)phenoxy]propyl]-5-benzyloxypyrimidin-4-one]	more than seven
< 0.1 µmol/kg	COc1cnc(NCCCOc2cccc(CN3CCCCC3)c2)[nH]c1=O [Example 5, 2-[3-[3-(Piperidinomethyl)phenoxy]propylamino]-5-methoxypyrimidin-4-one]	more than seven
